Consider eight cell lines from the supplement of paper PMC10307832.

Holding throughout (assay): relative viability (nuclei count vs DMSO), 5 days (fraction); higher = more cells survive
Compound in the assay “IPA-3 + Alpelisib”: C1=CC=C2C(=C1)C=CC(=C2SSC3=C(C=CC4=CC=CC=C43)O)O [IPA-3] + Cc1nc(NC(=O)N2CCC[C@H]2C(N)=O)sc1-c1ccnc(C(C)(C)C(F)(F)F)c1 [Alpelisib] (partner 2 µM)
An outline of the steps: (§1)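 Lung cancer cell lines in 1536-well plates got either a single drug or a fixed anchor-drug dose together with five library-drug doses (not always all listed) in √10 steps, by pin tool, on the day after seeding. Nuclei were counted after 5 days, and relative viability is the treated-to-vehicle ratio of nuclei counts. Values are medians of duplicate plates.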

Compound in the assay “Doramapimod + Trametinib”: Cc1ccc(-n2nc(C(C)(C)C)cc2NC(=O)Nc2ccc(OCCN3CCOCC3)c3ccccc23)cc1 [Doramapimod] + CC(=O)Nc1cccc(-n2c(=O)n(C3CC3)c(=O)c3c(Nc4ccc(I)cc4F)n(C)c(=O)c(C)c32)c1 [Trametinib] (partner 0.02 µM)
In short, it runs like this: as §1

Compound in the assay “Doramapimod + Lapatinib”: Cc1ccc(-n2nc(C(C)(C)C)cc2NC(=O)Nc2ccc(OCCN3CCOCC3)c3ccccc23)cc1 [Doramapimod] + CS(=O)(=O)CCNCc1ccc(-c2ccc3ncnc(Nc4ccc(OCc5cccc(F)c5)c(Cl)c4)c3c2)o1 [Lapatinib] (partner 2 µM)
An outline of the steps: as §1

Compound in the assay “IPA-3 + Olaparib”: C1=CC=C2C(=C1)C=CC(=C2SSC3=C(C=CC4=CC=CC=C43)O)O [IPA-3] + O=C(c1cc(Cc2n[nH]c(=O)c3ccccc23)ccc1F)N1CCN(C(=O)C2CC2)CC1 [Olaparib] (partner 8 µM)
An outline of the steps: as §1

Take HCC-78: the relative viability with IPA-3 + Alpelisib (first compound 0.2 µM) was 0.327; with IPA-3 + Alpelisib (first compound 0.6325 µM) it was 0.406; in the assay with IPA-3 + Alpelisib (first compound 2 µM), 0.244; with IPA-3 + Alpelisib (first compound 6.325 µM), 0.347; with IPA-3 + Alpelisib (first compound 20 µM), 0.51; with Doramapimod + Trametinib (first compound 0.02 µM) it was 0.802. Moreover, the relative viability came to 0.724 with Doramapimod + Trametinib (first compound 0.06325 µM); 0.767 with Doramapimod + Trametinib (first compound 0.2 µM); 0.763 in the assay with Doramapimod + Trametinib (first compound 0.6325 µM); 0.819 with Doramapimod + Trametinib (first compound 2 µM); 0.745 with Doramapimod + Lapatinib (first compound 0.02 µM); 0.936 in the assay with Doramapimod + Lapatinib (first compound 0.06325 µM). The relative viability with Doramapimod + Lapatinib (first compound 0.2 µM) was 0.79; with Doramapimod + Lapatinib (first compound 0.6325 µM), 0.837; with Doramapimod + Lapatinib (first compound 2 µM) it was 0.885; in the assay with IPA-3 + Olaparib (first compound 0.2 µM) it was 0.885; with IPA-3 + Olaparib (first compound 0.6325 µM) it was 0.836; with IPA-3 + Olaparib (first compound 2 µM), 0.805. Further, the relative viability with IPA-3 + Olaparib (first compound 6.325 µM) is 0.881; in the assay with IPA-3 + Olaparib (first compound 20 µM) it was 0.932.

For HCC-366, the relative viability came out at 0.499 with IPA-3 + Alpelisib (first compound 0.2 µM); 0.425 in the assay with IPA-3 + Alpelisib (first compound 0.6325 µM); 0.432 with IPA-3 + Alpelisib (first compound 2 µM); 0.477 in the assay with IPA-3 + Alpelisib (first compound 6.325 µM); 0.333 with IPA-3 + Alpelisib (first compound 20 µM); 0.309 with Doramapimod + Trametinib (first compound 0.02 µM). In addition, the relative viability came to 0.248 with Doramapimod + Trametinib (first compound 0.06325 µM); 0.259 in the assay with Doramapimod + Trametinib (first compound 0.2 µM); 0.263 with Doramapimod + Trametinib (first compound 0.6325 µM); 0.212 with Doramapimod + Trametinib (first compound 2 µM); 1.08 in the assay with Doramapimod + Lapatinib (first compound 0.02 µM); 1.08 in the assay with Doramapimod + Lapatinib (first compound 0.06325 µM). Moreover, the relative viability in the assay with Doramapimod + Lapatinib (first compound 0.2 µM) turned out to be 1.14; in the assay with Doramapimod + Lapatinib (first compound 0.6325 µM), 1.03; with Doramapimod + Lapatinib (first compound 2 µM), 1.03; with IPA-3 + Olaparib (first compound 0.2 µM) it was 0.532; with IPA-3 + Olaparib (first compound 0.6325 µM), 0.345; in the assay with IPA-3 + Olaparib (first compound 2 µM), 0.321. The relative viability with IPA-3 + Olaparib (first compound 6.325 µM) is 0.34; with IPA-3 + Olaparib (first compound 20 µM), 0.277.

Consider HCC-827, for which the relative viability in the assay with IPA-3 + Alpelisib (first compound 0.2 µM) turned out to be 0.972; in the assay with IPA-3 + Alpelisib (first compound 0.6325 µM), 0.961; in the assay with IPA-3 + Alpelisib (first compound 2 µM) it was 0.971; with IPA-3 + Alpelisib (first compound 6.325 µM), 0.978; in the assay with IPA-3 + Alpelisib (first compound 20 µM) it was 1.01; in the assay with Doramapimod + Trametinib (first compound 0.02 µM), 0.571. Further, the relative viability in the assay with Doramapimod + Trametinib (first compound 0.06325 µM) is 0.408; with Doramapimod + Trametinib (first compound 0.2 µM), 0.521; with Doramapimod + Trametinib (first compound 0.6325 µM), 0.594; with Doramapimod + Trametinib (first compound 2 µM) it was 0.405; with Doramapimod + Lapatinib (first compound 0.02 µM), 0.2; with Doramapimod + Lapatinib (first compound 0.06325 µM), 0.272. For the same cell line, the relative viability with Doramapimod + Lapatinib (first compound 0.2 µM) is 0.17; with Doramapimod + Lapatinib (first compound 0.6325 µM), 0.352; with Doramapimod + Lapatinib (first compound 2 µM), 0.201; with IPA-3 + Olaparib (first compound 0.2 µM), 0.818; in the assay with IPA-3 + Olaparib (first compound 0.6325 µM) it was 0.579; in the assay with IPA-3 + Olaparib (first compound 2 µM) it was 0.557. In addition, the results for the relative viability in the assay with IPA-3 + Olaparib (first compound 6.325 µM) and with IPA-3 + Olaparib (first compound 20 µM) were 0.737 and 0.638, respectively.

Regarding HOP-62, the relative viability in the assay with IPA-3 + Alpelisib (first compound 0.2 µM) was determined as 1.08; with IPA-3 + Alpelisib (first compound 0.6325 µM), 0.926; with IPA-3 + Alpelisib (first compound 2 µM), 0.952; with IPA-3 + Alpelisib (first compound 6.325 µM), 0.945; in the assay with IPA-3 + Alpelisib (first compound 20 µM), 0.93; with Doramapimod + Trametinib (first compound 0.02 µM) it was 0.411. In addition, the relative viability was determined as 0.349 with Doramapimod + Trametinib (first compound 0.06325 µM); 0.464 with Doramapimod + Trametinib (first compound 0.2 µM); 0.423 with Doramapimod + Trametinib (first compound 0.6325 µM); 0.468 with Doramapimod + Trametinib (first compound 2 µM); 0.918 in the assay with Doramapimod + Lapatinib (first compound 0.02 µM); 1.12 with Doramapimod + Lapatinib (first compound 0.06325 µM). Besides, the relative viability in the assay with Doramapimod + Lapatinib (first compound 0.2 µM) stood at 0.991; in the assay with Doramapimod + Lapatinib (first compound 0.6325 µM) it was 0.95; with Doramapimod + Lapatinib (first compound 2 µM), 0.927; with IPA-3 + Olaparib (first compound 0.2 µM) it was 0.848; with IPA-3 + Olaparib (first compound 0.6325 µM), 0.401; with IPA-3 + Olaparib (first compound 2 µM), 0.47. Moreover, the relative viability is 0.392 in the assay with IPA-3 + Olaparib (first compound 6.325 µM) and 0.274 with IPA-3 + Olaparib (first compound 20 µM).

As to IA-LM, the relative viability stood at 0.884 with IPA-3 + Alpelisib (first compound 0.2 µM); 0.735 with IPA-3 + Alpelisib (first compound 0.6325 µM); 0.731 with IPA-3 + Alpelisib (first compound 2 µM); 0.703 with IPA-3 + Alpelisib (first compound 6.325 µM); 0.738 in the assay with IPA-3 + Alpelisib (first compound 20 µM); 0.897 with Doramapimod + Lapatinib (first compound 0.02 µM). The relative viability turned out to be 0.841 with Doramapimod + Lapatinib (first compound 0.2 µM); 0.763 with Doramapimod + Lapatinib (first compound 0.6325 µM); 0.669 in the assay with Doramapimod + Lapatinib (first compound 2 µM); 1.22 with IPA-3 + Olaparib (first compound 0.2 µM); 0.814 in the assay with IPA-3 + Olaparib (first compound 0.6325 µM); 0.906 in the assay with IPA-3 + Olaparib (first compound 2 µM). The relative viability turned out to be 0.651 with IPA-3 + Olaparib (first compound 6.325 µM) and 0.814 with IPA-3 + Olaparib (first compound 20 µM).

Take LC-2-ad: the relative viability was 0.927 in the assay with IPA-3 + Alpelisib (first compound 0.2 µM); 0.808 in the assay with IPA-3 + Alpelisib (first compound 0.6325 µM); 0.897 with IPA-3 + Alpelisib (first compound 2 µM); 0.82 in the assay with IPA-3 + Alpelisib (first compound 6.325 µM); 0.941 in the assay with IPA-3 + Alpelisib (first compound 20 µM); 0.992 with Doramapimod + Trametinib (first compound 0.02 µM). The relative viability in the assay with Doramapimod + Trametinib (first compound 0.06325 µM) was found to be 0.92; with Doramapimod + Trametinib (first compound 0.2 µM) it was 0.906; with Doramapimod + Trametinib (first compound 0.6325 µM), 0.981; with Doramapimod + Trametinib (first compound 2 µM), 0.855; in the assay with Doramapimod + Lapatinib (first compound 0.02 µM), 0.87; in the assay with Doramapimod + Lapatinib (first compound 0.06325 µM), 1.03. In addition, the relative viability in the assay with Doramapimod + Lapatinib (first compound 0.2 µM) was determined as 1.1; with Doramapimod + Lapatinib (first compound 0.6325 µM) it was 1.05; with Doramapimod + Lapatinib (first compound 2 µM) it was 0.643; in the assay with IPA-3 + Olaparib (first compound 0.2 µM) it was 0.811; with IPA-3 + Olaparib (first compound 0.6325 µM), 0.738; with IPA-3 + Olaparib (first compound 2 µM), 0.699. Further, the relative viability with IPA-3 + Olaparib (first compound 6.325 µM) amounted to 0.751; in the assay with IPA-3 + Olaparib (first compound 20 µM), 0.683.

For LCLC-97TM1, the relative viability was 0.281 with IPA-3 + Alpelisib (first compound 0.2 µM); 0.299 in the assay with IPA-3 + Alpelisib (first compound 0.6325 µM); 0.241 with IPA-3 + Alpelisib (first compound 2 µM); 0.232 with IPA-3 + Alpelisib (first compound 6.325 µM); 0.246 in the assay with IPA-3 + Alpelisib (first compound 20 µM); 0.169 in the assay with Doramapimod + Trametinib (first compound 0.02 µM). Further, the relative viability with Doramapimod + Trametinib (first compound 0.06325 µM) came to 0.225; in the assay with Doramapimod + Trametinib (first compound 0.2 µM), 0.249; with Doramapimod + Trametinib (first compound 0.6325 µM), 0.265; with Doramapimod + Trametinib (first compound 2 µM), 0.204; with Doramapimod + Lapatinib (first compound 0.02 µM), 0.859; in the assay with Doramapimod + Lapatinib (first compound 0.06325 µM), 0.792. In addition, the relative viability with Doramapimod + Lapatinib (first compound 0.2 µM) is 1; with Doramapimod + Lapatinib (first compound 0.6325 µM) it was 1.05; with Doramapimod + Lapatinib (first compound 2 µM) it was 0.853; with IPA-3 + Olaparib (first compound 0.2 µM), 0.397; with IPA-3 + Olaparib (first compound 0.6325 µM) it was 0.337; with IPA-3 + Olaparib (first compound 2 µM) it was 0.475. For the same cell line, the relative viability with IPA-3 + Olaparib (first compound 6.325 µM) amounted to 0.265; in the assay with IPA-3 + Olaparib (first compound 20 µM), 0.359.

LCLC-103H: the relative viability was 0.926 in the assay with IPA-3 + Alpelisib (first compound 0.2 µM); 0.806 with IPA-3 + Alpelisib (first compound 0.6325 µM); 0.81 with IPA-3 + Alpelisib (first compound 2 µM); 0.943 with IPA-3 + Alpelisib (first compound 6.325 µM); 1.02 with IPA-3 + Alpelisib (first compound 20 µM); 0.656 with Doramapimod + Trametinib (first compound 0.02 µM). In addition, the relative viability is 0.675 with Doramapimod + Trametinib (first compound 0.06325 µM); 0.683 with Doramapimod + Trametinib (first compound 0.2 µM); 0.68 with Doramapimod + Trametinib (first compound 0.6325 µM); 0.679 in the assay with Doramapimod + Trametinib (first compound 2 µM); 0.765 with IPA-3 + Olaparib (first compound 0.2 µM); 0.693 with IPA-3 + Olaparib (first compound 0.6325 µM). In addition, the relative viability with IPA-3 + Olaparib (first compound 2 µM) was found to be 0.78; with IPA-3 + Olaparib (first compound 6.325 µM), 0.681; with IPA-3 + Olaparib (first compound 20 µM), 0.789.
